Literature values as cited in US8021854B2, “Method of treating vascular disease” (priority 2007, dated 2011).
Where two headings read alike, the source gives them in different places.

Experiments:
[1] = test system: platelets of patients with essential thrombocythaemia; conditions: during therapy
[2] = in vivo
[3] = test system: patients with essential thrombocythemia at high risk for vascular events; conditions: versus hydroxyurea group
[4] = test system: patients with and without significant cardiovascular history
[5] = test system: patients with myeloproliferative disorders; conditions: 577 patients
[6] = test system: patients with thrombocythemic states; conditions: 942 patients
[7] = test system: vaso-occlusive disease; conditions: low doses of aspirin

SMILES: O=C1CN2Cc3c(ccc(Cl)c3Cl)N=C2N1 [anagrelide]
- functional or chemical platelet abnormalities [1]: no functional or chemical abnormality was improved
- platelet count [1]: corrected
- platelet volume [1]: constantly increased
- adverse reaction: chest pain [2]: 8%
- adverse reaction: peripheral edema [2]: 9%
- adverse reaction: tachycardia [2]: 8%
- withdrawal from assigned treatment ([3]; P<0.001): more likely to withdraw
- odds ratio of reaching the primary end point ([3]; median follow-up 39 months, 95 percent CI 1.04 to 2.37, P=0.03): 1.57
- severity of cardiovascular events (palpitations, edema, tachycardia) ([4]; 492 patients): generally mild and did not increase cardiovascular disease morbidity
- patients experiencing cardiovascular adverse events ([4]; patients with history of cardiac disease, 22 of 90): 24%
- patients experiencing cardiovascular adverse events ([4]; patients without history of cardiac disease, 30 of 402, p=0.0001): 7%
- study population that discontinued therapy due to adverse events ([5]; mean treatment duration 65 weeks): Sixteen
- discontinuation of therapy due to cardiovascular adverse events ([5]; 23 patients): 4%
- palpitations and tachycardia (patients) ([5]; 209 patients): 36%
- patients who died from cardiovascular adverse events ([5]; four had preexisting coronary artery disease): Seven
- congestive heart failure (patients) ([5]; fourteen patients): 2.4%
- deaths [6]: 50
- deaths from cardiac causes [6]: 15
- fluid retention [6]: 22%
- palpitations [6]: 26%
- patients who discontinued the agent due to adverse events [6]: Thirteen

SMILES: CC(=O)Oc1ccccc1C(=O)O [aspirin, Acetyl salicylic acid]
- incidence of major haemorrhage [7]: less than 1%
- morbidity and mortality reductions ([7]; vaso-occlusive disease, Physician's Health Study): 45%
